# Measured values reported in patent US7589087B2 (Janssen Pharmaceutica, N.V., priority 2006, dated 2009).
# Counter-ions that a name gives are not always drawn.
# Target: T1, human histamine H4 receptor (Homo sapiens, UniProt Q9H3N8)
# T1 construct: expressed in transfected cells; host or cells: SK-N-MC cells or COS7 cells, transiently transfected; membranes prepared
# Assay: Binding Assay on Recombinant Human Histamine H4 Receptor (3H-histamine competition, membranes of transfected SK-N-MC or COS7 cells); further: ligand 5 nM
# Procedure: SK-N-MC cells or COS7 cells were transiently transfected with pH4R and grown in 150 cm^2 tissue culture dishes. Cells were washed with saline solution, scraped with a cell scraper and collected by centrifugation (1000 rpm, 5 min). Cell membranes were prepared by homogenization of the cell pellet in 20 mM Tris-HCl with a polytron tissue homogenizer for 10 sec at high speed. Homogenate was centrifuged at 1000 rpm for 5 min at 4° C. The supernatant was then collected and centrifuged at 20,000×g for 25 min at 4° C. The final pellet was resuspended in 50 mM Tris-HCl. […] Incubation occurred at room temperature for 45 min. Membranes were harvested by rapid filtration over Whatman GF/C filters and washed 4 times with ice-cold 50 mM Tris HCl. Filters were then dried, mixed with scintillant and counted for radioactivity.
row,Compound,Ki
1,"Cc1c(F)ccc2[nH]c(-c3ccc(N(C)CCCC4CCN(C)CC4)nc3)nc12 [Example 2, [5-(5-Fluoro-4-methyl-1H-benzoimidazol-2-yl)-pyridin-2-yl]-methyl-[3-(1-methyl-piperidin-4-yl)-propyl]-amine]",0.015 µM
2,"Cc1c(F)ccc2[nH]c(-c3ccc(NCCCN4CCN(C)CC4)nc3)nc12 [Example 10, [5-(5-Fluoro-4-methyl-1H-benzoimidazol-2-yl)-pyridin-2-yl]-[3-(4-methyl-piperazin-1-yl)-propyl]-amine]",0.93 µM
3,"Cc1c(F)ccc2[nH]c(-c3ccc(N(CCCC4CCN(C)CC4)C(C)C)nc3)nc12 [Example 13, [5-(5-Fluoro-4-methyl-1H-benzoimidazol-2-yl)-pyridin-2-yl]-isopropyl-[3-(1-methyl-piperidin-4-yl)-propyl]-amine]",0.73 µM
4,"Cc1cc(C)c2nc(-c3ccnc(N(C)CCCCC4CCN(C)CC4)c3)[nH]c2c1 [Example 14, [4-(4,6-Dimethyl-1H-benzoimidazol-2-yl)-pyridin-2-yl]-methyl-[4-(1-methyl-piperidin-4-yl)-butyl]-amine hydrochloride salt]",0.04 µM
5,"Cc1c(F)ccc2[nH]c(-c3ccnc(NCCCCC4CCN(C)CC4)c3)nc12 [Example 16, [4-(5-Fluoro-4-methyl-1H-benzoimidzol-2-yl)-pyridin-2-yl]-[4-(1-methyl-piperidin-4-yl)-butyl]-amine]",0.002 µM
6,"Cc1c(F)ccc2[nH]c(-c3ccnc(NCCCCN4CCCN(C)CC4)c3)nc12 [Example 19, [4-(5-Fluoro-4-methyl-1H-benzoimidazol-2-yl)-pyridin-2-yl]-[4-(4-methyl-[1,4]diazepan-1-yl)-butyl]-amine]",0.005 µM
7,"Cc1c(F)ccc2[nH]c(-c3ccnc(NC(=O)CCCC4CCN(C)CC4)c3)nc12 [Example 20, N-[4-(5-Fluoro-4-methyl-1H-benzoimidazol-2-yl)-pyridin-2-yl]-4-(1-methyl-piperidin-4-yl)-butyramide]",0.25 µM
8,"Cc1cc(C)c2nc(-c3ccnc(NC(=O)CCCC4CCN(C)CC4)c3)[nH]c2c1 [Example 21, N-[4-(4,6-Dimethyl-1H-benzoimidazol-2-yl)-pyridin-2-yl]-4-(1-methyl-piperidin-4-yl)-butyramide]",0.29 µM
9,"COC(=O)c1ccc2[nH]c(-c3ccc(N(C)CCCC4CCN(C)CC4)nc3)nc2c1 [Example 22, 2-(6-{Methyl-[3-(1-methyl-piperidin-4-yl)-propyl]-amino}-pyridin-3-yl)-1H-benzoimidazole-5-carboxylic acid methyl ester]",0.42 µM
10,"Cc1ccc2[nH]c(-c3ccc(N(C)CCCC4CCN(C)CC4)nc3)nc2c1C [Example 27, [5-(4,5-Dimethyl-1H-benzoimidazol-2-yl)-pyridin-2-yl]-methyl-[3-(1-methyl-piperidin-4-yl)-propyl]-amine]",0.072 µM
11,"CN1CCC(CCCN(C)c2ccc(-c3nc4c(F)c(F)ccc4[nH]3)cn2)CC1 [Example 28, [5-(4,5-Difluoro-1H-benzoimidazol-2-yl)-pyridin-2-yl]-methyl-[3-(1-methyl-piperidin-4-yl)-propyl]-amine]",0.037 µM
12,"CN1CCC(CCCNc2ccc(-c3nc4cc(C(=O)c5ccccc5)ccc4[nH]3)cn2)CC1 [Example 30, (2-{6-[3-(1-Methyl-piperidin-4-yl)-propylamino]-pyridin-3-yl}-1H-benzoimidazol-5-yl)-phenyl-methanone]",0.52 µM
13,"CC(C)N(CCCN1CCN(C)CC1)c1ccc(-c2nc3cc(Cl)ccc3[nH]2)cn1 [Example 34, [5-(5-Chloro-1H-benzoimidazol-2-yl)-pyridin-2-yl]-isopropyl-[3-(4-methyl-piperazin-1-yl)-propyl]-amine]",0.57 µM
14,"Cc1ccc2[nH]c(-c3ccnc(NC(=O)CCCC4CCN(C)CC4)c3)nc2c1C [Example 35, N-[4-(4,5-Dimethyl-1H-benzoimidazol-2-yl)-pyridin-2-yl]-4-(1-methyl-piperidin-4-yl)-butyramide]",0.47 µM

# Now from value to molecule:
row,Ki,Compound
1,0.012 µM,"Cc1cc(C)c2nc(-c3ccc(N(C)CCCC4CCN(C)CC4)nc3)[nH]c2c1 [Example 1, [5-(4,6-Dimethyl-1H-benzoimidazol-2-yl)-pyridin-2-yl]-methyl-[3-(1-methyl-piperidin-4-yl)-propyl]-amine]"
2,0.006 µM,"CN1CCC(CCCNc2ccc(-c3nc4cc(Cl)ccc4[nH]3)cn2)CC1 [Example 3, [5-(5-Chloro-1H-benzoimidazol-2-yl)-pyridin-2-yl]-[3-(1-methyl-piperidin-4-yl)-propyl]-amine]"
3,0.009 µM,"CN1CCC(CCCNc2ccc(-c3nc4cc(C(C)(C)C)ccc4[nH]3)cn2)CC1 [Example 4, [5-(5-tert-Butyl-1H-benzoimidazol-2-yl)-pyridin-2-yl]-[3-(1-methyl-piperidin-4-yl)-propyl]-amine]"
4,0.033 µM,"Cc1c(F)ccc2[nH]c(-c3ccc(NCCCC4CCN(C)CC4)nc3)nc12 [Example 5, [5-(5-Fluoro-4-methyl-1H-benzoimidazol-2-yl)-pyridin-2-yl]-[3-(1-methyl-piperidin-4-yl)-propyl]-amine]"
5,0.016 µM,"Cc1cc(Cl)cc2[nH]c(-c3ccc(NCCCC4CCN(C)CC4)nc3)nc12 [Example 6, [5-(6-Chloro-4-methyl-1H-benzoimidazol-2-yl)-pyridin-2-yl]-[3-(1-methyl-piperidin-4-yl)-propyl]-amine]"
6,0.5 µM,"COc1ccc2[nH]c(-c3ccc(NCCCC4CCN(C)CC4)nc3)nc2c1 [Example 7, [5-(5-Methoxy-1H-benzoimidazol-2-yl)-pyridin-2-yl]-[3-(1-methyl-piperidin-4-yl)-propyl]-amine]"
7,1.59 µM,"COC(=O)c1ccc2[nH]c(-c3ccc(NCCCC4CCN(C)CC4)nc3)nc2c1 [Example 8, 2-{6-[3-(1-Methyl-piperidin-4-yl)-propylamino]-pyridin-3-yl}-1H-benzoimidazole-5-carboxylic acid methyl ester]"
8,0.35 µM,"Cc1cc(Cl)cc2[nH]c(-c3ccc(NCCCN4CCN(C)CC4)nc3)nc12 [Example 9, [5-(6-Chloro-4-methyl-1H-benzoimidazol-2-yl)-pyridin-2-yl]-[3-(4-methyl-piperazin-1-yl)-propyl]-amine]"
9,0.022 µM,"Cc1cc(-c2nc3c(C)c(F)ccc3[nH]2)cnc1NCCCC1CCN(C)CC1 [Example 11, [5-(5-Fluoro-4-methyl-1H-benzoimidazol-2-yl)-3-methyl-pyridin-2-yl]-[3-(1-methyl-piperidin-4-yl)-propyl]-amine]"
10,0.078 µM,"Cc1cc(-c2nc3c(F)c(F)ccc3[nH]2)cnc1NCCCC1CCN(C)CC1 [Example 12, [5-(4,5-Difluoro-1H-benzoimidazol-2-yl)-3-methyl-pyridin-2-yl]-[3-(1-methyl-piperidin-4-yl)-propyl]-amine]"
11,0.001 µM,"Cc1cccc2[nH]c(-c3ccnc(NCCCCC4CCN(C)CC4)c3)nc12 [Example 15, [4-(4-Methyl-1H-benzoimidazol-2-yl)-pyridin-2-yl]-[4-(1-methyl-piperidin-4-yl)-butyl]-amine]"
12,0.008 µM,"Cc1cc(Cl)cc2[nH]c(-c3ccnc(NCCCCC4CCN(C)CC4)c3)nc12 [Example 17, [4-(6-Chloro-4-methyl-1H-benzoimidazol-2-yl)-pyridin-2-yl]-[4-(1-methyl-piperidin-4-yl)-butyl]-amine]"
13,0.002 µM,"Cc1cc(C)c2nc(-c3ccnc(NCCCCC4CCN(C)CC4)c3)[nH]c2c1 [Example 18, [4-(4,6-Dimethyl-1H-benzoimidazol-2-yl)-pyridin-2-yl]-[4-(1-methyl-piperidin-4-yl)-butyl]-amine]"
14,0.24 µM,"Cc1cccc2[nH]c(-c3ccc(NCCCC4CCN(C)CC4)nc3)nc12 [Example 23, [5-(4-Methyl-1H-benzoimidazol-2-yl)-pyridin-2-yl]-[3-(1-methyl-piperidin-4-yl)-propyl]-amine]"
15,0.023 µM,"Cc1cc(C)c2nc(-c3ccc(NCCCC4CCN(C)CC4)nc3)[nH]c2c1 [Example 24, [5-(4,6-Dimethyl-1H-benzoimidazol-2-yl)-pyridin-2-yl]-[3-(1-methyl-piperidin-4-yl)-propyl]-amine]"
16,0.058 µM,"Cc1ccc2[nH]c(-c3ccc(NCCCC4CCN(C)CC4)nc3)nc2c1C [Example 25, [5-(4,5-Dimethyl-1H-benzoimidazol-2-yl)-pyridin-2-yl]-[3-(1-methyl-piperidin-4-yl)-propyl]-amine]"
17,0.013 µM,"CN1CCC(CCCNc2ccc(-c3nc4cc(Cl)c(F)cc4[nH]3)cn2)CC1 [Example 26, [5-(5-Chloro-6-fluoro-1H-benzoimidazol-2-yl)-pyridin-2-yl]-[3-(1-methyl-piperidin-4-yl)-propyl]-amine]"
18,0.089 µM,"CN1CCC(CCCNc2ccc(-c3nc4c(F)c(F)ccc4[nH]3)cn2)CC1 [Example 29, [5-(4,5-Difluoro-1H-benzoimidazol-2-yl)-pyridin-2-yl]-[3-(1-methyl-piperidin-4-yl)-propyl]-amine]"
19,2.67 µM,"CN1CCC(CCCNc2ccc(-c3nc4c(Cl)cccc4[nH]3)cn2)CC1 [Example 31, [5-(4-Chloro-1H-benzoimidazol-2-yl)-pyridin-2-yl]-[3-(1-methyl-piperidin-4-yl)-propyl]-amine]"
20,0.041 µM,"CN1CCC(CCCNc2ccc(-c3nc4cc(F)ccc4[nH]3)cn2)CC1 [Example 32, [5-(5-Fluoro-1H-benzoimidazol-2-yl)-pyridin-2-yl]-[3-(1-methyl-piperidin-4-yl)-propyl]-amine]"
21,0.68 µM,"Cc1cc(C)c2nc(-c3ccc(NCCCN4CCN(C)CC4)nc3)[nH]c2c1 [Example 33, [5-(4,6-Dimethyl-1H-benzoimidazol-2-yl)-pyridin-2-yl]-[3-(4-methyl-piperazin-1-yl)-propyl]-amine]"
